# Test results as given in patent US20140120232A1, “ACID TASTE/ACID SMELL-REDUCING AGENT” (T. HASEGAWA CO., LTD., priority 2011, published 2014).
# Assay: Sensory evaluation of Vermont drink containing the agent
# Details: ten panels
# How it was run: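 Tridecadienal or tridecatrienal isomers added at various concentrations to a Vermont-flavoured drink (apple-cider vinegar, honey, liquid sugar, citric acid, trisodium citrate, 100 mL total). Ten panelists assessed acid taste/acid smell and aldehyde-type off-odour, and the concentration giving the best acid taste/smell quality was selected.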
structure (smiles),measurement,setting,value
"CCCCC/C=C/C/C=C\CCC=O [(Z,E)-4,7-tridecadienal]","A: number of panels, acid taste/acid smell extreme and cause irritation",0.005 ppt,10
same,"B: number of panels, acid taste/acid smell slightly strong and slightly cause irritation",0.005 ppt,0
same,"C: number of panels, acid taste/acid smell slightly unpleasant",0.005 ppt,0
same,Flavor judgment: number of panels who judged acid taste/acid smell quality the highest,0.005 ppt,0
same,"N: number of panels, irritation of acid reduced to give a mild acid taste",0.005 ppt,0
same,"X: number of panels, acid taste reduced but piercing odor characteristic to aldehydes unpleasant",0.005 ppt,0
same,"A: number of panels, acid taste/acid smell extreme and cause irritation",0.02 ppt,10
same,"B: number of panels, acid taste/acid smell slightly strong and slightly cause irritation",0.02 ppt,0
same,"C: number of panels, acid taste/acid smell slightly unpleasant",0.02 ppt,0
same,Flavor judgment: number of panels who judged acid taste/acid smell quality the highest,0.02 ppt,0
same,"N: number of panels, irritation of acid reduced to give a mild acid taste",0.02 ppt,0
same,"X: number of panels, acid taste reduced but piercing odor characteristic to aldehydes unpleasant",0.02 ppt,0
same,"A: number of panels, acid taste/acid smell extreme and cause irritation",0.1 ppt,10
same,"B: number of panels, acid taste/acid smell slightly strong and slightly cause irritation",0.1 ppt,0
same,"C: number of panels, acid taste/acid smell slightly unpleasant",0.1 ppt,0
same,Flavor judgment: number of panels who judged acid taste/acid smell quality the highest,0.1 ppt,0
same,"N: number of panels, irritation of acid reduced to give a mild acid taste",0.1 ppt,0
same,"X: number of panels, acid taste reduced but piercing odor characteristic to aldehydes unpleasant",0.1 ppt,0
same,"A: number of panels, acid taste/acid smell extreme and cause irritation",0.2 ppt,9
same,"B: number of panels, acid taste/acid smell slightly strong and slightly cause irritation",0.2 ppt,1
same,"C: number of panels, acid taste/acid smell slightly unpleasant",0.2 ppt,0
same,Flavor judgment: number of panels who judged acid taste/acid smell quality the highest,0.2 ppt,0
same,"N: number of panels, irritation of acid reduced to give a mild acid taste",0.2 ppt,0
same,"X: number of panels, acid taste reduced but piercing odor characteristic to aldehydes unpleasant",0.2 ppt,0
same,"A: number of panels, acid taste/acid smell extreme and cause irritation",0.5 ppt,5
same,"B: number of panels, acid taste/acid smell slightly strong and slightly cause irritation",0.5 ppt,3
same,"C: number of panels, acid taste/acid smell slightly unpleasant",0.5 ppt,2
same,Flavor judgment: number of panels who judged acid taste/acid smell quality the highest,0.5 ppt,0
same,"N: number of panels, irritation of acid reduced to give a mild acid taste",0.5 ppt,0
same,"X: number of panels, acid taste reduced but piercing odor characteristic to aldehydes unpleasant",0.5 ppt,0
same,"A: number of panels, acid taste/acid smell extreme and cause irritation",1 ppb,0
same,"B: number of panels, acid taste/acid smell slightly strong and slightly cause irritation",1 ppb,0
same,"C: number of panels, acid taste/acid smell slightly unpleasant",1 ppb,2
same,Flavor judgment: number of panels who judged acid taste/acid smell quality the highest,1 ppb,0
same,"N: number of panels, irritation of acid reduced to give a mild acid taste",1 ppb,4
same,"X: number of panels, acid taste reduced but piercing odor characteristic to aldehydes unpleasant",1 ppb,4
same,"A: number of panels, acid taste/acid smell extreme and cause irritation",1 ppt,0
same,"B: number of panels, acid taste/acid smell slightly strong and slightly cause irritation",1 ppt,3
same,"C: number of panels, acid taste/acid smell slightly unpleasant",1 ppt,6
same,Flavor judgment: number of panels who judged acid taste/acid smell quality the highest,1 ppt,0
same,"N: number of panels, irritation of acid reduced to give a mild acid taste",1 ppt,1
same,"X: number of panels, acid taste reduced but piercing odor characteristic to aldehydes unpleasant",1 ppt,0
same,"A: number of panels, acid taste/acid smell extreme and cause irritation",5 ppt,0
same,"B: number of panels, acid taste/acid smell slightly strong and slightly cause irritation",5 ppt,2
same,"C: number of panels, acid taste/acid smell slightly unpleasant",5 ppt,2
same,Flavor judgment: number of panels who judged acid taste/acid smell quality the highest,5 ppt,4
same,"N: number of panels, irritation of acid reduced to give a mild acid taste",5 ppt,6
same,"X: number of panels, acid taste reduced but piercing odor characteristic to aldehydes unpleasant",5 ppt,0
same,"A: number of panels, acid taste/acid smell extreme and cause irritation",10 ppb,0
same,"B: number of panels, acid taste/acid smell slightly strong and slightly cause irritation",10 ppb,0
same,"C: number of panels, acid taste/acid smell slightly unpleasant",10 ppb,2
same,Flavor judgment: number of panels who judged acid taste/acid smell quality the highest,10 ppb,0
same,"N: number of panels, irritation of acid reduced to give a mild acid taste",10 ppb,3
same,"X: number of panels, acid taste reduced but piercing odor characteristic to aldehydes unpleasant",10 ppb,5
same,"A: number of panels, acid taste/acid smell extreme and cause irritation",20 ppt,0
same,"B: number of panels, acid taste/acid smell slightly strong and slightly cause irritation",20 ppt,1
same,"C: number of panels, acid taste/acid smell slightly unpleasant",20 ppt,2
same,Flavor judgment: number of panels who judged acid taste/acid smell quality the highest,20 ppt,3
same,"N: number of panels, irritation of acid reduced to give a mild acid taste",20 ppt,7
same,"X: number of panels, acid taste reduced but piercing odor characteristic to aldehydes unpleasant",20 ppt,0
same,"A: number of panels, acid taste/acid smell extreme and cause irritation",50 ppb,0
same,"B: number of panels, acid taste/acid smell slightly strong and slightly cause irritation",50 ppb,0
same,"C: number of panels, acid taste/acid smell slightly unpleasant",50 ppb,0
same,Flavor judgment: number of panels who judged acid taste/acid smell quality the highest,50 ppb,0
same,"N: number of panels, irritation of acid reduced to give a mild acid taste",50 ppb,2
same,"X: number of panels, acid taste reduced but piercing odor characteristic to aldehydes unpleasant",50 ppb,8
same,"A: number of panels, acid taste/acid smell extreme and cause irritation",100 ppt,0
same,"B: number of panels, acid taste/acid smell slightly strong and slightly cause irritation",100 ppt,0
same,"C: number of panels, acid taste/acid smell slightly unpleasant",100 ppt,2
same,Flavor judgment: number of panels who judged acid taste/acid smell quality the highest,100 ppt,3
same,"N: number of panels, irritation of acid reduced to give a mild acid taste",100 ppt,8
same,"X: number of panels, acid taste reduced but piercing odor characteristic to aldehydes unpleasant",100 ppt,0
same,"A: number of panels, acid taste/acid smell extreme and cause irritation",500 ppt,0
same,"B: number of panels, acid taste/acid smell slightly strong and slightly cause irritation",500 ppt,1
same,"C: number of panels, acid taste/acid smell slightly unpleasant",500 ppt,3
same,Flavor judgment: number of panels who judged acid taste/acid smell quality the highest,500 ppt,0
same,"N: number of panels, irritation of acid reduced to give a mild acid taste",500 ppt,4
same,"X: number of panels, acid taste reduced but piercing odor characteristic to aldehydes unpleasant",500 ppt,2
